System: blood pressure of rats with arterial high pressure
Assay: Blood pressure depression in awake hypertensive rats (11-deoxycorticosteroneacetate plus common salt), direct arterial catheter measurement
Format: in vivo
Details: hypertensive rats (10% sodium chloride in feed + 11-deoxycorticosteroneacetate), 0.6 millimole/kg perorally in 1% methyl cellulose, 4 hours after oral application, median of at least 6 measurements
Protocol: The test animals were rats into which arterial catheters had been implanted in a sterile operation via the arteria femoralis into the aorta. It was possible to measure the animals' blood pressure in the awake state directly in the blood with a transducer (Statham Transducer Type TP 23 D 6) via a carrier frequency measuring bridge. The animals were treated by administration of 10% common salt (sodium chloride) in their feed and, starting on the sixth week of their life, two injections per week of 5 mg at a time of 11-deoxycorticosteroneacetate per animal and thus developed an arterial high pressure in the median with values of […]. The test compounds were administered to the animals as follows: After the blood pressure control values had been determined, the animals received the test compound perorally suspended in 10 ml of 1% methyl cellusose solution in a dosage of 0.6 millimole/kg and measurements were taken 4 hours after oral application of the substance.
The values set forth in the Table represent in each case the median of at least 6 individual measurements of blood pressure depression (in mm Hg) per applied substance.

**Q.** `C[C@@](Cc1ccc(O)c(O)c1)(NC(=O)CN)C(=O)O` [Glycyl-L-3-(3,4-dihydroxyphenyl)-2-methyl-alanine] was tested. Which “Blood Pressure Reduction” value did it give?
**A.** 37 ± 9.1 mm Hg

**Q.** With `C[C@H](N)C(=O)N[C@@](C)(Cc1ccc(O)c(O)c1)C(=O)O` [L-Alanyl-L-3-(3,4-dihydroxyphenyl)-2-methyl-alanine] as the compound, how does the “Blood Pressure Reduction” value read?
**A.** 51 ± 6.0 mm Hg

**Q.** How did the “Blood Pressure Reduction” value turn out when `C[C@H](N)C(=O)N[C@@H](C)C(=O)N[C@@](C)(Cc1ccc(O)c(O)c1)C(=O)O` [L-Alanyl-L-alanyl-L-3-(3,4-dihydroxyphenyl)-2-methylalanine] was run?
**A.** 58 ± 5.8 mm Hg

**Q.** How did the “Blood Pressure Reduction” value turn out when `C[C@@](Cc1ccc(O)c(O)c1)(NC(=O)[C@@H](N)CO)C(=O)O` [L-Seryl-L-3-(3,4-dihydroxyphenyl)-2-methyl-alanine] was run?
**A.** 52 ± 7.5 mm Hg

**Q.** For `C[C@](N)(Cc1ccc(O)c(O)c1)C(=O)O` [α-Methyl-Dopa, L-3-(3,4-dihydroxyphenyl)-2-methyl-alanine], which “Blood Pressure Reduction” value is on record?
**A.** 33 ± 4.9 mm Hg

Reference: patent publication US4087520A, “Lowering blood pressure with new L-3-(3,4-dihydroxyphenyl)-2-methyl-alanine peptides” (Boehringer Mannheim GmbH, priority 1975, dated 1978)
